Test results from patent US11529338B2, “Compositions and methods for treating cancer” (Cedars-Sinai Medical Center, priority 2017, dated 2022).

Biological target: T1, OC2-HOX (Homo sapiens, UniProt O95948)
T1 sequence (O95948 426-485 limits assumed): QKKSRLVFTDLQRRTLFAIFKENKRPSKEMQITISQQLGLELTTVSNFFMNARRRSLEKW
Experiment: Binding to OC2-HOX measured by surface plasmon resonance
Conditions: based on 2:2 Langmuir model simulation of the bimolecular interactions, read-out: binding affinity KD
Text: FIG. 12A-FIG. 12C depicts in accordance with various embodiments of the invention, CSRM617 derivatives. FIG. 12A depicts chemical structures of CSRM617 derivatives CSRM123 and CSRM843. FIG. 12B depicts dose-dependent binding of CSRM123 and CSRM843 to OC2-HOX, measured by surface plasmon resonance, is shown. […] FIG. 12C depicts IC50 values for compounds CSRM617, CSRM123 and CSRM843 in 22Rv1 and DU145 cell lines.

Row | SMILES | Kd [nM]
1 | NC(=O)C1CCCCN1C(=O)NCCc1ccc(O)c(O)c1O (centres unmarked) [CSRM123] | 1150
2 | O=C(CNC(=O)Cc1ccc(O)c(O)c1O)NO [CSRM843] | 118
